In data set [1] the test system is choroidal neovascularization (CNV). The data set is described as follows: Mouse model of choroidal neovascularization (CNV) induced by laser irradiation; CNV volume at 7 days. To be noted: 7 days after laser irradiation; for CNV suppression rate: based on non-treated group. In kind it is in vivo. The protocol: In the CNV model, macrophages migrate by the initiation of an inflammation by laser irradiation, and as a result thereof, VEGF is produced, neovascular vessels are generated, and increased vascular permeability is observed.
The both eyes of a male C57BL/6J mice having a body weight of about 20 g (6-week old) were irradiated with laser (irradiated by 4 to 6 spots per one eye) to experimentally induce CNV. As mentioned below, the drugs were administered by an anti-VEGF antibody alone and ranirestat alone, respectively, or by a combination of the two drugs. […] As the anti-VEGF antibody, a mouse anti-VEGF antibody purchased from R&D Systems was used. The number of examples was five per a group, and the following four groups were set.
(a) Untreated group (b) 3 mg/kg ranirestat-administered group: 3 mg/kg of ranirestat was forcibly and orally administered once a day (3 mg/kg/day) (c) Anti-VEGF antibody-administered group: ing of an anti-VEGF antibody was administered by intravitreal injection (d) Combination use group: ing of an anti-VEGF antibody was administered by intravitreal injection+ranirestat was administered (3 mg/kg was forcibly and orally administered once a day (3 mg/kg/day))
Ranirestat was administered from the days of the laser irradiation (20 to 30 minutes after the irradiation) to 7 days after the irradiation. The anti-VEGF antibody was administered by intravitreal injection immediately after the laser irradiation. After completion of the laser irradiation, the mice were bred by general breeding for 7 days, and thereafter the eye balls were excised and the volume of CNV appeared in the choroid was measured. The induction and evaluation of CNV were conducted by the following procedures.
Each mouse was anesthetized by administering 0.30 mL of tribromoethanol to the abdominal cavity of the mouse, and a mydriatics and a local anesthesia were placed a drop of the eyes. Thereafter the both eyes of the mouse were irradiated with laser (wavelength: 532 nm, output: 200 mW, irradiation time: 100 ms, spot size: 100 μm) by 4 to 6 spots per one eye using a laser photocoagulation device (Lumenis). CNV appeared by the laser irradiation, and thereafter the CNV volume increased.
At 7 days after the laser irradiation, each mouse was euthanized under tribromoethanol anesthesia, and the left and right eye balls of the mouse were excised. […] The volume of CNV was measured by importing an image in the vicinity of CNV by a confocal laser microscope (Zeiss LSM5 Pascal) and using image analysis software (NIH Image J). […]
Ranirestat was administered from the day of the laser irradiation (20 to 30 minutes after the irradiation) to seven days after the irradiation. […] The CNV volume was measured in a similar manner to Experiment 1.

For data set [2] the following is noted: injected into the vitreous body of a human; package insert of ranibizumab; cited from earlier work.

Take `O=C1C[C@@]2(C(=O)N1)C(=O)N(Cc1ccc(Br)cc1F)C(=O)c1cccn12` [ranirestat, (3R)-2′-(4-bromo-2-fluorobenzyl)spiro[pyrrolidine-3,4′(1′H)pyrrolo[1,2-a]pyrazine]-1′,2,3′,5(2′H)-tetrone]: the CNV suppression rate in data set [1] (Experiment 1, male C57BL/6J mice, ranirestat 3 mg/kg/day oral, anti-VEGF antibody by intravitreal injection) is 18.3%; in data set [1] (Experiment 2, ranirestat 10 mg/kg/day oral, anti-VEGF antibody 1 ng by intravitreal injection), 39.3%. The “effect of suppressing the CNV volume as compared to the non-treated group” value in data set [1] (Experiment 1, ranirestat 3 mg/kg/day oral, anti-VEGF antibody intravitreal) is on record as “an effect of suppressing the CNV volume was observed but there was no significant difference”; in data set [1] (Experiment 2, ranirestat 10 mg/kg/day oral, anti-VEGF antibody 1 ng intravitreal), “a significant effect of suppressing the CNV volume was observed”.

With “ranibizumab: typical anti-VEGF agent, used as intravitreal injection”, the elimination half-life in data set [2] was 220 h.
